Source: patent publication US10590143B2, “Herbicidally active (alkynyl-phenyl)-substituted cyclic dione compounds and derivatives thereof” (Syngenta Limited, priority 2013, dated 2020)
Read-outs that look alike come from different tables or passages of the source.

How the values were obtained:
Test in all cases: Biological Example 1 glasshouse assay for herbicidal activity
Assay type in all cases: in vivo
[1] = tested on: Abutilon theophrasti (ABUTH); conditions: 312 h, 13 days after application, read-out: percentage phytotoxicity ABUTH
Outline: (§1)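 Herbicide was applied as an aqueous acetone spray with 0.5% Tween 20 to potted plants either pre-emergence or post-emergence. Injury relative to undamaged plants was rated visually as a percentage 13 days later.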

[2] = tested on: Alopecurus myosuroides (ALOMY); conditions: 312 h, 13 days after application, read-out: percentage phytotoxicity ALOMY
Outline: as §1

[3] = tested on: Amaranthus retroflexus (AMARE); conditions: Amaranthus retroflexus, 312 h, 13 days after application, read-out: percentage phytotoxicity AMARE
Outline: as §1

[4] = tested on: Echinochloa crus-galli (ECHCG); conditions: Echinochloa crus-galli, 312 h, 13 days after application, read-out: percentage phytotoxicity ECHCG
Outline: as §1

Setaria faberi (SETFA) = conditions: 312 h, 13 days after application, read-out: percentage phytotoxicity SETFA
Outline: as §1

[5] = tested on: Zea mays (ZEAMX, corn, maize, e.g. volunteer corn); conditions: Zea mays, 312 h, 13 days after application, read-out: percentage phytotoxicity ZEAMX
Outline: as §1

## CC#Cc1cc(F)c(C2C(=O)C3CCC(C)(C2=O)C3(C)C)c(OC)c1 (stereo not drawn) [Compound A2]
[1]; post-emergence, post-emergence
  pest or weed control at 30 g/ha: 0%
  pest or weed control at 250 g/ha: 0%
[1]; pre-emergence, pre-emergence
  pest or weed control at 30 g/ha: 60%
  pest or weed control at 250 g/ha: 60%
[2]; post-emergence
  pest or weed control at 30 g/ha: 80%
  pest or weed control at 250 g/ha: 90%
[2]; pre-emergence
  pest or weed control at 30 g/ha: 70%
  pest or weed control at 250 g/ha: 90%
[3]; post-emergence, post-emergence
  pest or weed control at 30 g/ha: 0%
  pest or weed control at 250 g/ha: 0%
[3]; pre-emergence, pre-emergence
  pest or weed control at 30 g/ha: 10%
  pest or weed control at 250 g/ha: 40%
[4]; post-emergence, post-emergence
  pest or weed control at 30 g/ha: 100%
  pest or weed control at 250 g/ha: 100%
[4]; pre-emergence, pre-emergence
  pest or weed control at 30 g/ha: 90%
  pest or weed control at 250 g/ha: 100%
Setaria faberi (SETFA); post-emergence, post-emergence
  pest or weed control at 30 g/ha: 90%
  pest or weed control at 250 g/ha: 90%
Setaria faberi (SETFA); pre-emergence, pre-emergence
  pest or weed control at 30 g/ha: 70%
  pest or weed control at 250 g/ha: 100%
[5]; post-emergence, post-emergence
  pest or weed control at 30 g/ha: 100%
  pest or weed control at 250 g/ha: 100%
[5]; pre-emergence, pre-emergence
  pest or weed control at 30 g/ha: 60%
  pest or weed control at 250 g/ha: 100%

## CC#Cc1cc(F)c(C2=C(OC(=O)c3ccccc3)C3CCC(C3)C2=O)c(OC)c1 (stereo not drawn) [Compound P5, [3-(2-fluoro-6-methoxy-4-prop-1-ynyl-phenyl)-4-oxo-2-bicyclo[3.2.1]oct-2-enyl]benzoate]
[1]; post-emergence, post-emergence
  pest or weed control at 8 g/ha: 0%
  pest or weed control at 30 g/ha: 10%
  pest or weed control at 250 g/ha: 80%
[1]; pre-emergence, pre-emergence
  pest or weed control at 30 g/ha: 0%
  pest or weed control at 250 g/ha: 60%
[2]; post-emergence
  pest or weed control at 8 g/ha: 70%
  pest or weed control at 30 g/ha: 90%
  pest or weed control at 250 g/ha: 90%
[2]; pre-emergence
  pest or weed control at 30 g/ha: 70%
  pest or weed control at 250 g/ha: 100%
[3]; post-emergence, post-emergence
  pest or weed control at 8 g/ha: 0%
  pest or weed control at 30 g/ha: 0%
  pest or weed control at 250 g/ha: 20%
[3]; pre-emergence, pre-emergence
  pest or weed control at 30 g/ha: 20%
  pest or weed control at 250 g/ha: 70%
[4]; post-emergence, post-emergence
  pest or weed control at 8 g/ha: 90%
  pest or weed control at 30 g/ha: 100%
  pest or weed control at 250 g/ha: 100%
[4]; pre-emergence, pre-emergence
  pest or weed control at 30 g/ha: 80%
  pest or weed control at 250 g/ha: 100%
Setaria faberi (SETFA); post-emergence, post-emergence
  pest or weed control at 8 g/ha: 60%
  pest or weed control at 30 g/ha: 80%
  pest or weed control at 250 g/ha: 90%
Setaria faberi (SETFA); pre-emergence, pre-emergence
  pest or weed control at 30 g/ha: 60%
  pest or weed control at 250 g/ha: 80%
[5]; post-emergence, post-emergence
  pest or weed control at 8 g/ha: 100%
  pest or weed control at 30 g/ha: 100%
  pest or weed control at 250 g/ha: 100%
[5]; pre-emergence, pre-emergence
  pest or weed control at 30 g/ha: 80%
  pest or weed control at 250 g/ha: 100%

## CC#Cc1cc(F)c(C2=C(OC(=O)SCC)C3CCC(C3)C2=O)c(OC)c1 (stereo not drawn) [Compound P4]
[1]; post-emergence, post-emergence
  pest or weed control at 8 g/ha: 10%
  pest or weed control at 30 g/ha: 20%
  pest or weed control at 250 g/ha: 80%
[1]; pre-emergence, pre-emergence
  pest or weed control at 30 g/ha: 0%
  pest or weed control at 250 g/ha: 40%
[2]; post-emergence
  pest or weed control at 8 g/ha: 80%
  pest or weed control at 30 g/ha: 90%
  pest or weed control at 250 g/ha: 90%
[2]; pre-emergence
  pest or weed control at 30 g/ha: 80%
  pest or weed control at 250 g/ha: 100%
[3]; post-emergence, post-emergence
  pest or weed control at 8 g/ha: 20%
  pest or weed control at 30 g/ha: 30%
  pest or weed control at 250 g/ha: 20%
[3]; pre-emergence, pre-emergence
  pest or weed control at 30 g/ha: 30%
  pest or weed control at 250 g/ha: 60%
[4]; post-emergence, post-emergence
  pest or weed control at 8 g/ha: 90%
  pest or weed control at 30 g/ha: 100%
  pest or weed control at 250 g/ha: 100%
[4]; pre-emergence, pre-emergence
  pest or weed control at 30 g/ha: 100%
  pest or weed control at 250 g/ha: 100%
Setaria faberi (SETFA); post-emergence, post-emergence
  pest or weed control at 8 g/ha: 70%
  pest or weed control at 30 g/ha: 80%
  pest or weed control at 250 g/ha: 100%
Setaria faberi (SETFA); pre-emergence, pre-emergence
  pest or weed control at 30 g/ha: 60%
  pest or weed control at 250 g/ha: 90%
[5]; post-emergence, post-emergence
  pest or weed control at 8 g/ha: 100%
  pest or weed control at 30 g/ha: 100%
  pest or weed control at 250 g/ha: 100%
[5]; pre-emergence, pre-emergence
  pest or weed control at 30 g/ha: 90%
  pest or weed control at 250 g/ha: 100%
